Laboratory results from patent publication US11187660B2, “Fluorescent probes for monitoring voltage by photo-induced electron transfer” (The Regents of the University of California, priority 2011, dated 2021).

Assay: Absorbance and emission spectra in n-octanol
Format: physicochemical
Method: VF2.4.Cl features an absorbance spectrum with a λmax in octanol (to simulate cellular membranes) centered at 527 nm (ε527=4×10^4 M^−1 cm^−1). Excitation of VF2.4.Cl at 527 nm results in emission centered at 540 nm (Φ=0.23) (FIG. 3).
UV absorbance and fluorescence spectra were recorded on a Cary 3E (Varian) and Fluorolog 2 (Spex) fluorimeter, respectively. Analytical, semi-preparative, and preparative HPLCs were performed on Agilent HPLCs, with Luna C18(2) columns (Phenomenex) using water (solvent A) and acetonitrile (solvent B) with 0.05% TFA as an additive. Low resolution ESI mass spectrometry was performed on an Agilent LC/MSD Trap XCT coupled to an Agilent HPLC. High resolution mass spectra were acquired on a ThermoFisher Orbitrap XL hybrid mass spectrometer. ^1H NMR spectra were collected in CDCl3 or d6-DMSO (Cambridge Isotope Laboratories, Cambridge, Mass.) at 25° C. on a 400 Varian Mercury Plus or Jeol ECA 500 spectrometer at the Department of Chemistry and Biochemistry NMR Facility at the University of California, San Diego. All chemical shifts are reported in the standard δ notation of parts per million using the peak of residual proton signals of CDCl3 or d6-DMSO as an internal reference.

## CCCCN(CCCC)c1ccc(/C=C/c2ccc(/C=C/c3ccc(-c4c5cc(Cl)c(=O)cc-5oc5cc(O)c(Cl)cc45)c(S(=O)(=O)O)c3)cc2)cc1 [VF2.4.Cl, 5-(4-(4-(dibutylamino)styryl)styryl)-2-(2,7-dichloro-6-hydroxy-3-oxo-3H-xanthen-9-yl)benzenesulfonic acid]
  absorbance λmax: 527 nm
  Φ: 0.23
  ε527: 40000 M⁻¹ cm⁻¹
Excitation at 527 nm
  emission centered at: 540 nm
